Laboratory results published in patent publication US5208242A, “5-substituted-4-phenyl-5H-imidazo[4,5-c]pyridine derivatives” (G. D. Searle & Co., priority 1992, dated 1993).
pIC50: −log10 of the molar value.

Target: T1, PAF receptor (Homo sapiens, UniProt P25105)
T1 construct: tissue Lifesource, Inc. (Glenview, Ill.); host or cells: human packed platelets (washed, freeze-thawed membrane preparation)
Assay: Inhibition of the Specific Binding of [^3 H]PAF to Human Platelet Membrane Preparation
Conditions: 0.75 nM [^3 H]PAF, 30 minutes at 24° C., pH 7.4
Experimental: Inhibition of the Specific Binding of [^3 H]PAF to Human Platelet Membrane Preparation.
Human packed platelets were obtained from Lifesource, Inc. (Glenview, Ill.) and washed 3 times with 10 mM Trizma pH 7.0, 2 mM EDTA (dipotassium salt), 150 mM KCl and then once with 10 mM Trizma 7.4, 20 mM CaCl2. The platelets were broken by freezing in a dry ice-ethanol bath, followed by thawing in 24° C. water baths. The preparation was centrifugation (40,000×g, 20 minutes, 4' C) and the pellet resuspended in 10 mM Trizma 7.4, 20 mM CaCl2, 5 mg/ml human albumin. Protein concentration in the platelet membrane preparation was determined by the Lowry method [O.H. Lowry et al. J. Biological Chemistry, 193, 265-275 (1951)]. Aliquots of the membrane preparation were stored at -70° C. Each preparation was characterized for PAF receptor number and dissociation constant (Kd). In binding assays 5 μl of test compound, solubilized in DMSO, was added to polypropylene tubes along with 0.75 nM [^ 3 H]PAF and 200 mcl [0.075 nM] of membranes and 95 μl 10 mM Trizma 7.4, […], 5 mg/ml human albumin. Tubes were incubated for 30 minutes at 24° C. […] Filters were prepared and counted for a scintillation counter. […] The IC50 values were determined by the Allfit program using percent displacement data. […]

T1 sequence (P25105 whole entry): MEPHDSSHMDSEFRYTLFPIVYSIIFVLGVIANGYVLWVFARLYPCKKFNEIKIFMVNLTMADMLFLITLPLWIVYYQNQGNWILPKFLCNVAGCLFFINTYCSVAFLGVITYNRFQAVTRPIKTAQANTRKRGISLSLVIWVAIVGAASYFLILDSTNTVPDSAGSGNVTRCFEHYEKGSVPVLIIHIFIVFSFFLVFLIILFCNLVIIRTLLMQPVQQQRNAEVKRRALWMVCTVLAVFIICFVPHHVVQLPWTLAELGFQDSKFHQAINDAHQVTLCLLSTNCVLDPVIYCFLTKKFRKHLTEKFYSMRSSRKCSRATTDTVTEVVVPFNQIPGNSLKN

pIC50: 5.98
SMILES: COc1cc(C(=O)N(C(C)C)C2CCCCC2)ccc1Cn1ccc2ncnc-2c1-c1ccccc1 [Compound 9, N-cyclohexyl-3-methoxy-N-(1-methylethyl)-4-[(4-phenyl-5H-imidazo[4,5-c]pyridin-5-yl)methyl]benzamide]
